Source: ChEMBL document CHEMBL5518206, “Hit-to-Lead Identification and Validation of a Triaromatic Pleuromutilin Antibiotic Candidate” (J Med Chem, 2024)
The source made the active and inactive calls. The rule behind the calls is not given here.

Experiments:
[1] = AUC (0 to infinity) in NMRI female mouse at 30 mg/kg, iv by HPLC analysis; assay type: ADME, organism-based; conditions: in vivo
[2] = Cmax in pig urine at 10 mg/kg, po measured upto 240 mins by LC-MS/MS analysis; assay type: ADME, organism-based, Sus scrofa
[3] = AUC (0 to infinity) in NMRI female mouse at 30 mg/kg, po by HPLC analysis; assay type: ADME, organism-based; conditions: in vivo
[4] = Bioavailability in pig plasma at 10 mg/kg, po measured upto 240 mins by LC-MS/MS analysis; assay type: ADME, organism-based, Sus scrofa
[5] = Bioavailability in NMRI female mouse at 60 mg/kg, sc by HPLC analysis; assay type: ADME, organism-based; conditions: in vivo
[6] = AUC (0 to infinity) in pig urine at 3 mg/kg, iv measured upto 240 mins by LC-MS/MS analysis; assay type: ADME, organism-based, Sus scrofa; conditions: in vivo, 4 h
[7] = Half life in pig urine at 10 mg/kg, po measured upto 240 mins by LC-MS/MS analysis; assay type: ADME, organism-based, Sus scrofa
[8] = Bioavailability in NMRI female mouse at 30 mg/kg, po by HPLC analysis; assay type: ADME, organism-based; conditions: in vivo
[9] = Clearance in pig urine at 3 mg/kg, iv measured upto 240 mins by LC-MS/MS analysis; assay type: ADME, organism-based, Sus scrofa
[10] = Cmax in NMRI female mouse at 30 mg/kg, iv by HPLC analysis; assay type: ADME, organism-based; conditions: in vivo
[11] = Elimination rate constant in pig plasma at 10 mg/kg, po measured upto 240 mins by LC-MS/MS analysis; assay type: ADME, organism-based, Sus scrofa
[12] = Clearance in NMRI female mouse at 30 mg/kg, iv by HPLC analysis; assay type: ADME, organism-based; conditions: in vivo
[13] = Volume of distribution in NMRI female mouse at 60 mg/kg, sc by HPLC analysis; assay type: ADME, organism-based; conditions: in vivo
[14] = Half life in pig urine at 3 mg/kg, iv measured upto 240 mins by LC-MS/MS analysis; assay type: ADME, organism-based, Sus scrofa
[15] = Clearance in pig plasma at 10 mg/kg, po measured upto 240 mins by LC-MS/MS analysis; assay type: ADME, organism-based, Sus scrofa
[16] = test system: Staphylococcus aureus; assay: (§1) Induction of resistant development in linezolid 5 passages resistance developed Staphylococcus aureus USA300 FPR3757 assessed as fold increase in MIC at sub-MIC concentration measured after 13 passages with conjugate by serial passage assay; assay type: functional
[17] = test system: Staphylococcus aureus; assay: as §1, with “-(6-(6-(Piperazin-1-y1)-9H-purin-9-y)methyl)pyridin-3-y1)-1H-1,2,3-triazol-1-yl)-22-deoxypleuromutilin-16” for “linezolid 5”; assay type: functional
[18] = test system: Staphylococcus aureus; assay: Induction of resistant development in linezolid 5 passages resistance developed Staphylococcus aureus USA300 FPR3757 assessed as fold increase in MIC at sub-MIC concentration measured after 22 passages with conjugate by serial passage assay; assay type: functional
[19] = test system: Listeria; assay: Antibacterial activity against Listeria assessed as inhibition of visible growth incubated for 20 to 24 hrs by microbroth serial dilution assay; assay type: functional, organism-based; conditions: time 20-24 hrs
[20] = test system: Staphylococcus aureus; assay: as §1, with “-(6-(6-(Piperazin-1-y1)-9H-purin-9-y)methyl)pyridin-3-y1)-1H-1,2,3-triazol-1-yl)-22-deoxypleuromutilin-16” for “linezolid 5”, “18” for “13”; assay type: functional
[21] = test system: Staphylococcus aureus; assay: as §1, with “-(6-(6-(Piperazin-1-y1)-9H-purin-9-y)methyl)pyridin-3-y1)-1H-1,2,3-triazol-1-yl)-22-deoxypleuromutilin-16” for “linezolid 5”, “25” for “13”; assay type: functional
[22] = test system: Staphylococcus aureus; assay: Antibacterial activity against multi drug-resistant Staphylococcus aureus USA300 FPR3757 assessed as reduction in bacterial growth at 1 times of MIC concentration measured after 24 hrs by time-kill assay; assay type: functional, organism-based
[23] = test system: Staphylococcus aureus; assay: Induction of resistant development in lefamulin 5 passages resistance developed Staphylococcus aureus USA300 FPR3757 assessed as fold increase in MIC at sub-MIC concentration measured after 22 passages with conjugate by serial passage assay; assay type: functional
[24] = molecular target: ATP-dependent translocase ABCB1 (Homo sapiens, UniProt P08183); assay: Inhibition of P-gp in human Caco-2 cells using digoxin as substrate; assay type: cell-based
Sequence of ATP-dependent translocase ABCB1 (P08183 whole entry): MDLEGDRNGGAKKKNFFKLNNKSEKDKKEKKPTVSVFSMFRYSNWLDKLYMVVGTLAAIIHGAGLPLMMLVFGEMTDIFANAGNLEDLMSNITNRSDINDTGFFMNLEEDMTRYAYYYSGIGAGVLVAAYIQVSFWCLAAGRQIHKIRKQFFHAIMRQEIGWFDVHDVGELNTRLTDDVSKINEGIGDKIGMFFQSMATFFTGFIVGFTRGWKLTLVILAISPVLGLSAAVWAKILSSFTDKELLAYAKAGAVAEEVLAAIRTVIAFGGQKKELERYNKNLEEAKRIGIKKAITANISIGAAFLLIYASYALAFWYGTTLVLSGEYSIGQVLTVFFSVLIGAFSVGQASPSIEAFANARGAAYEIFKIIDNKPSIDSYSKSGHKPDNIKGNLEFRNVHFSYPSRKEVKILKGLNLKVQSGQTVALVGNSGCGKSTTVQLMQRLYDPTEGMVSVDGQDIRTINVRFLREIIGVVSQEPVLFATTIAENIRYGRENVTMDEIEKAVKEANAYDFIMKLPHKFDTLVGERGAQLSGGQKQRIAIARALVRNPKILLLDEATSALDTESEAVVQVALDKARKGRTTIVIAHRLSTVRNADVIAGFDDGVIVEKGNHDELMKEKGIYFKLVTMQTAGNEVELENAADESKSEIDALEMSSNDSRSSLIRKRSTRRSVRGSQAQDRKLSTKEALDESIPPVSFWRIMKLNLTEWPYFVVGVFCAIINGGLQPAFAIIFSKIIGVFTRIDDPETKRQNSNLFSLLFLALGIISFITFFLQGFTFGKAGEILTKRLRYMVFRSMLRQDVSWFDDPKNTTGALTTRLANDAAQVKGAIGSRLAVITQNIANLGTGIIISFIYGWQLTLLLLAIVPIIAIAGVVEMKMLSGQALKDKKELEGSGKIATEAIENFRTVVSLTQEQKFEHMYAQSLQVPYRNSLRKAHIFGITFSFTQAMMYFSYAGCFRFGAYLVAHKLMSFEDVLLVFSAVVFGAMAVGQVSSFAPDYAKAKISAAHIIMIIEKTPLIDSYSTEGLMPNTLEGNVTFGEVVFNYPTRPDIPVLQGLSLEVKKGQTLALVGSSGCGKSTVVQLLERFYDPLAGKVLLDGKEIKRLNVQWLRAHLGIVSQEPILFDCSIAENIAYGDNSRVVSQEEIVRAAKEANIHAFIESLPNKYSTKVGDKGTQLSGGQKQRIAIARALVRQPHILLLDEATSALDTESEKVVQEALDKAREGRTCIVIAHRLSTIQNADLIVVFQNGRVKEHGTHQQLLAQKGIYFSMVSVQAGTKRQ

[25] = test system: Staphylococcus aureus; assay: Induction of resistant development in linezolid 5 passages resistance developed Staphylococcus aureus USA300 FPR3757 assessed as fold increase in MIC at sub-MIC concentration measured after 9 passages with conjugate by serial passage assay; assay type: functional

C=C[C@]1(C)C[C@@H](OC(=O)Cn2cc(-c3ccc(Cn4cnc5c(N6CCNCC6)ncnc54)nc3)nn2)[C@]2(C)[C@H](C)CC[C@]3(CCC(=O)[C@H]32)[C@@H](C)[C@@H]1O
AUC [1]: 643 µg/mL/min
Cmax [2]: 114 ng/mL
AUC [3]: 1.6 µg/mL/min
bioavailability [4]: 6%
bioavailability [5]: 33%
AUC [6]: 821 µg/mL/min
half-life [7]: 2.2 h
bioavailability [8]: 0.3%
CL renal at 4 h [9]: 3.67 mL/min/kg
Cmax [10]: 8560 ng/mL
k el at 4 h [11]: 0.000518 s⁻¹
clearance [12]: 69.8 mL/min/kg
Vd [13]: 22 L/kg
half-life [14]: 0.46 h
CL/F [15]: 1420 mL/min/kg

C=C[C@]1(C)C[C@@H](OC(=O)CS[C@@H]2CC[C@@H](N)C[C@H]2O)[C@]2(C)[C@H](C)CC[C@]3(CCC(=O)[C@H]32)[C@@H](C)[C@@H]1O [LEFAMULIN]
fold change (FC) [16]: 16
fold change (FC) [17]: 16
fold change (FC) [18]: 32
Activity [19]: inactive
fold change (FC) [20]: 32
fold change (FC) [21]: 64
Activity [22]: inactive
fold change (FC) [23]: 32
IC50 [24]: 34.1 µM
fold change (FC) [25]: 8
